US20040033614A1, “Detection of oxidative intermediates in biological samples” (priority 2002, published 2004)

Columns and labels:
[1] = test system: superoxide dismutase and glutathione peroxidase; conditions: 5/6th nephrectomized rats treated with enalapril; reference 26; cited from earlier work
[2] = test system: urinary MDA; assay: Urinary malondialdehyde by fluorometric HPLC, cross-over trial of add-on losartan; type: in vivo, patients with chronic kidney disease; conditions: losartan 50 mg/d for 4 weeks added to lisinopril 40 mg/d; significantly decreased from 4.75±3.23 before therapy; mean ± SD, 16 patients
Experimental: (§1) Sample derivatization was carried out in 2 mL capacity plastic centrifuge tubes fitted with screw-on caps. To a 50 μl aliquot of sample or TEP standard, 50 μl BHT solution, 400 μl H3PO4 solution, and 100 μl TBA solution were added. Sample tubes were capped tightly, vortexed and then heated for 1 hour in a 100° C. dry bath incubator. Following heat derivatization, samples were placed in an ice-water (0° C.) water bath for 5 minutes to cool. 250 μl n-butanol was subsequently added to each vial for extracting the MDA-TBA complex. Tubes were vortexed for 5 minutes and then centrifuged for 3 minutes at 14,000× min^−1 to separate the two phases. Aliquots of 100 μl were removed from the n-butanol layer of each sample and placed in HPLC vials for analysis.
(§2) The chromatographic system consisted of a Hewlett-Packard Chromatographic Series 1100 autosampler and isocratic pump and Hewlett-Packard model 1046A programmable fluorescence detector (Palo Alto, Calif., USA). The autosampler was programmed to inject 10 μl of each sample at 1-minute intervals. The pump flow rate was 1.0 ml/min with the mobile phase comprised of methanol-buffer (40:60, v/v). […] The fluorescence detector was set at an excitation wavelength of 515 nm and emission wavelength of 553 nm. […] Peak areas were determined using a ChromJet integrator (Thermo Separation Products, San Jose, Calif.). […]

[3] = test system: urinary albumin and total urinary protein oxidation; assay: Carbonylation of urine proteins by Western blotting (DNP derivatization, OxyBlot); type: in vivo, patients with chronic kidney disease
Experimental: (§3) The protocol design of this study was reported in detail previously (15). Briefly, patients between the ages of 18 to 80 years with proteinuria of ≧1 g/d, hypertension defined as mean arterial pressure ≧97 mm Hg, serum potassium of ≦5.5 mEq/L and on lisinopril therapy of 40 mg/d for >3 months were eligible for the study. Patients who had previously received angiotensin receptor blockers or with estimated creatine clearance of <30 ml/min were excluded.
(§4) The study was a two period, cross-over, randomized controlled trial. Patients received either a sequence of losartan 50 mg/d for 4 weeks, a two week washout, and then placebo for 4 weeks or placebo for 4 weeks, a two week washout, and then losartan 50 mg/d for 4 weeks. Lisinopril 40 mg/d along with other anti-hypertensive therapy were continued throughout the trial. 24-hour urine was collected for protein, sodium, urea and creatinine, urinary carbonylated protein, malondialdehyde and monocyte chemotactic protein-l (MCP1) measurements. As the standard therapy for patients with proteinuria and renal failure includes ACE-inhibitors, ACE-inhibitors were not removed from any patient enrolled in the study.
Oxidation of plasma and urine proteins was measured by Western blot analysis according to the method of Shacter et al. Total protein was determined using the Vitros Dry Slide system (Ortho-Clinical Diagnostics, Rochester, N.Y.). Plasma was diluted 1:25 (v:v) with phosphate-buffered saline (PBS), and one aliquot of the diluted sample was derivatized and another prepared as an underivatized control using the OxyBlot protein oxidation detection kit (Intergen, Purchase, N.Y.). […] Derivatized and underivatized plasma or urine samples were loaded on electrophoresis gels in volumes calculated to give 5 μg of protein per sample, and the samples were electrophoresed according to the method of Laemmli on 4 to 20% gradient SDS-PAGE (Bio-Rad, Hercules, Calif.). […] Bands were visualized with chemiluminescent chemicals and captured on film at two exposure times (30 seconds and 1 minute). Blots were scanned on a Hewlett-Packard ScanJet 5200C scanner (Hewlett-Packard, Palo Alto, Calif.) and analyzed for band area using Un-Scan-It Gel software (Silk Scientific, Orem, Utah).
Samples from individual patients before and after losartan therapy, including derivatized and underivatized controls, were analyzed on a single Western blot. This ensured that the response to losartan therapy was compared under the same analytical conditions. […] Density of individual albumin bands and total protein in each sample lane was determined using the same size section of each scanned blot. […] The uniform window size and analysis box ensured that data were being analyzed consistently from band to band and from blot to blot. […]

[4] = test system: plasma albumin and total plasma protein oxidation; assay: Carbonylation of plasma proteins by Western blotting (DNP derivatization, OxyBlot); type: in vivo, patients with chronic kidney disease; conditions: before vs after losartan 50 mg/d for 4 weeks
Experimental: as §3
The study was a two period, cross-over, randomized controlled trial. […]
Oxidation of plasma and urine proteins was measured by Western blot analysis according to the method of Shacter et al. Total protein was determined using the Vitros Dry Slide system (Ortho-Clinical Diagnostics, Rochester, N.Y.). […] Derivatized and underivatized plasma or urine samples were loaded on electrophoresis gels in volumes calculated to give 5 μg of protein per sample, and the samples were electrophoresed according to the method of Laemmli on 4 to 20% gradient SDS-PAGE (Bio-Rad, Hercules, Calif.). […] Blots were scanned on a Hewlett-Packard ScanJet 5200C scanner (Hewlett-Packard, Palo Alto, Calif.) and analyzed for band area using Un-Scan-It Gel software (Silk Scientific, Orem, Utah).
Samples from individual patients before and after losartan therapy, including derivatized and underivatized controls, were analyzed on a single Western blot. […]

[5] = test system: plasma MDA; assay: Plasma malondialdehyde by fluorometric HPLC, cross-over trial of add-on losartan; type: in vivo, patients with chronic kidney disease; conditions: losartan 50 mg/d for 4 weeks added to lisinopril 40 mg/d
Experimental: as §1, §2

[6] = test system: plasma protein carbonyl; assay: Total plasma protein carbonyl measurement by size exclusion HPLC; type: in vivo, patients with chronic kidney disease; conditions: direct measurement of protein carbonylation in plasma
Experimental: as §3, §4

[7] = Blood pressure and proteinuria in the add-on losartan trial; type: in vivo, patients with chronic kidney disease; conditions: losartan 50 mg/d added to lisinopril 40 mg/d; as reported previously (15)
Experimental: The protocol design of this study was reported in detail previously (15). Briefly, patients between the ages of 18 to 80 years with proteinuria of ≧1 g/d, hypertension defined as mean arterial pressure ≧97 mm Hg, serum potassium of ≦5.5 mEq/L and on lisinopril therapy of 40 mg/d for >3 months were eligible for the study. […] The study was a two period, cross-over, randomized controlled trial. Patients received either a sequence of losartan 50 mg/d for 4 weeks, a two week washout, and then placebo for 4 weeks or placebo for 4 weeks, a two week washout, and then losartan 50 mg/d for 4 weeks. Lisinopril 40 mg/d along with other anti-hypertensive therapy were continued throughout the trial. […] Serum chemistries, complete blood counts, urine protein, electrolytes, urea and creatinine were measured in a hospital laboratory using routine methods. Specifically, creatinine was measured on a Hitachi 911 analyzer (Boehringer Mannheim) using the alkaline picrate method and urine protein was measured using a turbidometric method using benzethonium chloride read at 550 nm (Roche Diagnostics Corporation, Indianapolis, Ind.). Ambulatory blood pressure was measured with SpaceLabs 90207 monitors and glomerular filtration rate measurements with continuous infusion of iothalamate as previously reported (15).

## CCOC(=O)[C@H](CCc1ccccc1)N[C@@H](C)C(=O)N1CCC[C@H]1C(=O)O [enalapril]
[1]
  antioxidant enzymes in the kidney (superoxide dismutase, glutathione peroxidase): increased

## CCCCc1nc(Cl)c(CO)n1Cc1ccc(-c2ccccc2-c2nn[nH]n2)cc1 [losartan]
[2]
  urinary MDA levels after losartan therapy: 3.39±2.17 μmol/g creatinine
[3]; after treatment, p=0.029, 99% higher before therapy
  total urinary protein oxidation in excess of plasma after losartan therapy: 69%
[3]; after treatment, p=0.45, 71% higher before therapy
  urinary albumin oxidation compared to plasma albumin after losartan: no more oxidized
[3]; before vs after losartan 50 mg/d for 4 weeks
  total urinary protein oxidation, change with losartan: did not reach statistical significance
[3]; losartan 50 mg/d for 4 weeks added to lisinopril 40 mg/d, before vs after, proteinuria not reduced
  oxidative damage to urinary albumin: reduced
[4]
  plasma albumin oxidation, change with losartan: remained unchanged
  plasma protein oxidation, change with losartan: remained unchanged
[5]
  plasma MDA, change in response to losartan therapy: Neither plasma MDA or plasma oxidized proteins (FIGS. 6B and 7) changed
[6]
  carbonyl concentration from oxidized proteins in plasma, change with losartan: remained unchanged
[7]
  blood pressure, change in response to add-on losartan therapy: no change
  proteinuria, change in response to add-on losartan therapy: no change
